The assay has as its system Pseudomonas sp. CBR-F. The experiment in a line: Fluorescent response of living Pseudomonas sp. CBR-F cultures to perfluoroalkyl substances. The format is cell-based. The note with it: excitation 425 nm; for fluorescent response of Pseudomonas sp. CBR-F: R2A medium, 96 well plate, 12-16 hours at 30° C.; for fluorescent response of Pseudomonas sp. CBR-F / form of the fluorescence response versus concentration: emission 475 nm; for form of the fluorescence response versus concentration: log of concentration plotted against the measured fluorescence; for limit of detection: ppb (micrograms/liter), fluorescence at 475 nm. The method, then:
To perform an assay, CBR-F was inoculated into medium containing Reasoner's 2A medium (R2A) diluted from a 2× stock with the test sample in a 96 well plate. Internal standards using PFOA are run each time as a calibration curve. Following incubation for a number of hours (for example, 12-16 hours at 30° C.), fluorescence was measured at 475 nm with an excitation of 425 nm after the cultures have grown with shaking at 150 rpm for 15 hours using a 96 well plate reader with fluorescent capabilities. The log of PFOA concentration is plotted against the measured fluorescence, and a linear trend is calculated. The trendline formula is used to calculate PFOA/PFOS concentrations in the sample.

We go through two compounds from patent publication US20250116604A1, “FL[…] OF PERF[…] LIVING CULTURES OF A NEWLY ISOLATED P[…]. BACTERIUM” (The Government of the United States of America, as …, priority 2023, published 2025).

`O=C(O)C(F)(F)C(F)(F)C(F)(F)C(F)(F)C(F)(F)C(F)(F)C(F)(F)F` [PFOA, perfluorooctanoic acid]: the “fluorescent response of Pseudomonas sp. CBR-F” value is recorded as “produces fluorescence”, the “form of the fluorescence response versus concentration” value is “linear relative to the log” and the limit of detection turned out to be 50 ppb.
For the compound `O=S(=O)(O)C(F)(F)C(F)(F)C(F)(F)C(F)(F)C(F)(F)C(F)(F)C(F)(F)C(F)(F)F` [PFOS, perfluorooctanesulfonic acid], the “fluorescent response of Pseudomonas sp. CBR-F” value is “produces fluorescence”, the “form of the fluorescence response versus concentration” value is listed as “linear relative to the log” and the limit of detection stood at 50 ppb.
